Entries after “also recorded” stand apart in the source; their conditions may differ.
How the values were obtained:
Duroc and Yorkshire pigs = test: Boron supplementation and OC-associated lameness in swine (Example 1); type: in vivo, pig
Method: The basal diet consisted of commercial corn-soy diet containing 10 ppm boron.
Test diet group B was fed a basal diet plus 25 mg/kg boron as sodium borate decahydrate (borax). Test diet group A was fed a basal diet plus 25 mg/kg boron as sodium borate decahydrate (borax) and 250 mg/kg ascorbic acid.
Pigs were weighed at the beginning of the study, 4 weeks later and every 3 weeks until the end of the study. Animals were scored for soundness on a 5-point scale at each weighing. (Five-point scale: 1=no soundness defects; 2=minor soundness issues but still sound enough for retention as breeding animal; 3=not sound enough for retention for breeding but still marketable; 4=unsound, likely to be rejected at slaughter; 5=severely lame, requiring euthanasia for humane reasons.) Grading was done by the caretaker and the investigator at all weighing times. An experienced independent treatment-blind rater also evaluated the soundness of each animal and the ratings he provided were compared with the ratings of the caretaker and investigator by use of Cohen's Kappa test.
The animals were housed in a modern curtain sided barn with deep straw bedding, with ad libitum access to feed and water. Waterers and feeders were on a concrete pad but the remainder of the flooring was deep straw over a ground limestone and sand base. Floor space allowances exceeded the recommendations of the Guide for the Care and Use of Agricultural Animals in Agricultural Research and Teaching, First Revised Edition, 1999. Federation of Animal Science Societies. Savoy, Ill.
The basal diet (no boron supplemented) was analysed and found to contain boron at the rate of 10 ppm which is typical for a corn-soybean meal based diet.
At the end of the study the pigs were transported to a laboratory where they were euthanized and necropsied. Six pigs in each of group B and group A were put on the control diet for 7 days at the end of the study.
At necropsy, samples of liver, heart, kidney, fat, skeletal muscle, proximal tibia, blood, and the rostral snout were retained and frozen at −40° C. prior to chemical analysis. All joints of the axial skeleton were evaluated for the presence of gross lesions of osteochondrosis and graded on a 5 point scale. (5-point scale: 1=no gross abnormalities; 2=minor imperfections in articular conformation or articular reddening present but no cartilage erosions; 3=cartilage intact but surface irregularities of the cartilage are present; 4=fissuring or erosion of articular cartilage is obvious; 5=full thickness cartilage lesions or cartilage flaps, osteochondritis dissecans obviously present).
The proximal femur (femoral head) and articular surfaces and growth plates associated with the stifle, hock, shoulder, elbow and carpus were sectioned with a band saw and approx. 0.5 to 1.0 cm sections fixed in formalin. […]
Mean joint lesion scores, growth rate and soundness scores by treatment and by factors boron and ascorbate were compared using an analysis of variance and t-test as appropriate. Soundness scores were dichotomised into binary categorical variables for lameness (soundness score>2) and for absence of defects (soundness<2), and the binary variables analysed by chi-square and logistic regression.
Tissue specimens stained with H&E were examined microscopically for the presence of lesions of osteochondrosis. […] Each tissue section was scored by a treatment-blind board-certified pathologist. […]

pig cartilage = test: Glycosaminoglycan study: sGAG in articular cartilage plugs of hock and elbow joints; type: in vivo; conditions: pigs fed 50 ppm boron
Method: Hock joints and elbow joints were obtained at necropsy from pigs in two feeding groups: one group having been fed a commercial ration supplemented with 50 mg B/kg feed and the other being fed only the standard commercial pig ration.
Cartilage plugs were harvested from the articular surfaces of 40 hock and elbow joints using a #5 (10.5 mm) cork borer. The samples were papain digested and analyzed for concentration of sulfated glycosaminoglycan (sGAG) using a spectrophotometric microplate analysis procedure adapted from Farndale, et al (1986), using a chondrotin sulfate standard. This method measures total sulfated glycosaminoglycan, most of which is chondrotin sulfate and keratan sulfate components of aggrecan. Aggrecan is the large aggregating proteoglycan of cartilage responsible for creating and maintaining the osmotic pressure of cartilage. Quanititation of sGAG concentration thus provides a measure of the weight-bearing and anti-friction properties of cartilage and is a measure of cartilage quality and durability.

sows and their litters = test: Sow and litter trial in a commercial swine operation during a PRRSV outbreak; type: in vivo; conditions: sows given 1 mg boron per pound BW per day
Method: To test the effect of boron on sows and their litters, a trial was established in a large commercial swine operation during an outbreak of porcine viral reproductive and respiratory disease (PRRSV). Boron was administered orally to a group of 51 sows individually housed in crates at the rate of 1 mg boron per pound BW per day beginning 1 week prior to farrowing and continuing until the piglets were weaned at 14 days of age. […] Boron treatment was supplied as a single daily dosing and was discontinued at weaning. All sows were fed a standard commercial sow diet.

crossbred pigs = test: 28-day feeding trial: phosphorus digestibility and excretion, feed conversion; type: in vivo, pig; conditions: 50 ppm Added B; 28 days; N 12 pens
Method: Pigs were randomly allocated to 24 pens of 6 pigs per pen in a thermoneutral controlled environment barn with steel grid flooring. Each pen was equipped with a single-hole feeder. Water was available free-choice from a nipple drinker. […] Feces were collected on the last 3 days of the study from each pen and a pooled aliquot was dried and submitted for chemical analysis. Yttrium oxide was added to the diet at 0.05% and served as a marker for phosphorus digestibility. Pig growth and feed consumption was measured at the end of the study with the pen as the experimental unit. Data was analyzed for effects of boron and calcium by univariate and multivariate analysis of variance and t-tests.

turkeys = test: Turkey Study 3: growth, lameness scoring, femur breaking force, cartilage indenter test; type: in vivo; conditions: for leg weakness scores (mean): 5 point scale, control 3.0; for growth response (bird weight) / growth rates: groups with boron versus groups without boron
Excerpt: 250 turkeys were selected at random at week 11 and divided into 5 treatment groups: 1) control, 2) ascorbate only “(VC”), 3) boron only (“B”), 4), boron and ascorbate (“B+C”), and 5) ½ rate boron and full rate ascorbate (“LoB+C”). Full rates of both boron and ascorbate were as described for study 1. At 17 weeks, all birds were weighed, scored for lameness/mobility/gait abnormality using the five point scale used in study 1, and sacrificed. The femur was dissected from each leg of each bird and subjected to an ultimate breaking force analysis. Cartilage at the femoral distal condyle was subjected to an indenter test.
For the lameness/mobility/gait abnormality scoring, three graders were used. Two of the graders were “blind” graders unaware of each turkey's grouping. The third grader was a “biased” grader aware of each turkey's grouping. Partial grading on the 5 point scale described above was allowed. FIG. 11 presents the cross-tabulation of the graders' results.

[1] = test system: pigs of about 100 kg body weight; test: 3-NPB study in pigs with or without supplemental boron
Method: The pigs were evaluated for lameness daily and euthanatized on day 13 and the joints and other organs were examined.

[2] = test system: sows, piglets and pigs on farms; type: in vivo; conditions: sows on 1 mg/kg body weight boron as boric acid; usual mortality for this farm about 5 to 7%
Method: Boron was added to the diet of sows at 1 mg/kg body weight as boric acid. […] Among a group of 95 piglets the birth to weaning mortality was 2 piglets. The usual mortality for this farm was about 5 to 7%. These piglets remained on boron 50 ppm plus ascorbate 125 ppm. One pig was euthanized and examined at a weight of about 85 pounds. […] All bones of the appendicular skeleton were sectioned on the band saw.
An Iowa farm treated a group of about 100 pigs with 50 ppm boron as boric acid. None of these pigs developed any signs of lameness or unsoundness. The farmer reported that these pigs are the most sound he has raised. The estimated previous lameness/unsoundness rate was about 25 to 30%, and zero in the test group. […] The absence of lameness and hock swelling was observed. Two pigs with hock swelling were euthanised from among the younger and older pigs not treated with boric acid. […] An older pig of about 250 pounds body weight with severe lameness in the right hock was euthanised.

[3] = boron supplementation 50 ppm, 3-NPB none

Which “TBlue staining intensity (semi-quantitative measure of sGAG content of cartilage)” value (Duroc and Yorkshire pigs; boron supplemented group vs unsupplemented pigs) does the source give for `[B]` [Boron] here?
The value was “consistently higher”.

And the “joint condition vs basal diet with no supplemental boron (FIG. 1)” value (Duroc and Yorkshire pigs; growing swine supplemented with boron)?
The value was “healthier joints”.

And the “Growth plate lesions associated with widening, found in % of tissues” value (Duroc and Yorkshire pigs; pigs receiving 25 ppm boron, microscopic sections of articular cartilage and growth plate)?
Its value is 19%.

What about the “Articular cartilage lesions (necrosis, hemorrhage, infarction, or streaks), found in % of tissues” value (Duroc and Yorkshire pigs; pigs receiving 25 ppm supplemental B, microscopic sections) of the same molecule?
The value was 4%.

And the “occurrence of OC in pigs” value (Duroc and Yorkshire pigs; supplemental boron at 25 ppm to 50 ppm, FIGS. 1, 3 and 4)?
Its value is “significant reduction”.

And the “sGAG concentration (dry matter basis) in the cartilage” value (pig cartilage)?
Its value is 11050 ng/g.

And the “litter size at birth” value (sows and their litters)?
The value was “no effects”.

What about the piglet birth weight (sows and their litters) of the same molecule?
Its piglet birth weight is “no effects”.

And the “Feed Conversion Ratio (feed/gain)” value (crossbred pigs)?
The value was 2.32.

And the “leg weakness scores (mean)” value (turkeys)?
Its value is 2.3.

What about the “improvement of bone strength as compared with the control” value (turkeys; boron alone, 3-point bending test of the femur) of the same molecule?
The value was 7.8%.

What about the “effect on femur break force (main effects analysis, FIG. 26)” value (turkeys; week 11 to 17) of the same molecule?
The value was “large effect”.

What about the “growth response (bird weight) / growth rates” value (turkeys; week 11 to 17) of the same molecule?
Its value is “improved”.

And the “growth response (bird weight) / growth rates” value (turkeys; week 11 to 17, listed as B)?
Its value is “significant”.

What about the “Clinical Lameness Score: Normal (count of pigs)” value [1, 3] of the same molecule?
The value was 5.

And the “Clinical Lameness Score: Visible Lameness (count of pigs)” value [1, 3]?
The value was 0.

What about the “prevalence and severity of osteochondrosis lesions (shoulder, stifle, hock and elbow joints)” value ([1]; supplemental boron and no 3-NPB) of the same molecule?
The value was “lowest prevalence of lesions and the lowest severity”.

How did the “leg weakness scores (mean)” value (turkeys) turn out when `O=C1O[C@H]([C@@H](O)CO)C(O)=C1O` [ascorbate, ascorbic acid, reference compound] was run?
Its value is “did not significantly improve”.

What about the “bone strength as measured by 3-point bending test” value (turkeys; administered in drinking water) of the same molecule?
Its value is “slightly improved bone strength”.

What about the “cartilage strength by indenter test at the femoral distal condyle (FIG. 27)” value (turkeys; week 11 to 17) of the same molecule?
Its value is “statistically significant effect; also recorded: improved cartilage strength”.

What about the “effect on femur break force (main effects analysis, FIG. 26)” value (turkeys; week 11 to 17) of the same molecule?
The value was “lesser effect”.

Which “birth to weaning mortality among a group of 95 piglets” value [2] does the source give for `OB(O)O` [boric acid] here?
The value was 2 piglets.
